{"source": "patent US20230001010A1", "about": "“COMPOSITIONS AND METHODS FOR TREATING AUTOIMMUNE DISORDERS” (The Regents of the University of Michigan, priority 2019, published 2023)", "key": {"[1]": {"experiment": "Antigen / drug loading efficiency in HDL nanodiscs (HPLC/MS)", "assay_type": "physicochemical", "conditions": "for loading efficiency in HDL: antigen / antigen-lipid conjugate loaded into HDL nanodiscs, HPLC/MS", "description": "HDL nanodisc was prepared as previously described. Briefly, DMPC was dissolved in chloroform, which was evaporated with nitrogen flow and under vacuum for at least 1 h. The resulting lipid film was hydrated in 10 mM sodium phosphate buffer and sonicated in a bath sonicator for 10 min. ApoA1 mimetic peptide 22A dissolved in endotoxin free water was added to the above mixture (22A:DMPC=1:2 weight ratio) to obtain nanodiscs. To load MOG antigen peptide in nanodiscs, each antigen peptide was reacted with 4-(4-maleimidophenyl)-butyric DOPE for 3 h in dimethylformamide (DMF), which was removed by freeze-drying after dilution 10× with endotoxin-free water. The lipid-peptide conjugates were dissolved in DMSO and added to pre-formed sHDL and incubated for 30 min at room temperature. Unreacted MOG peptides were removed by using Zeba Spin Desalting columns (Pierce) following the manufacturer's instructions. The conjugation efficiency of MOG peptide was determined by LC-MS and gel permeation chromatography (GPC). EAE was induced in female C57BL/6 mice by inoculation with 100 μg of MOG in complete Freund's adjuvant on day 0 following the administration of pertussis toxin. Mice were then injected subcutaneously at tail base for therapeutic study with sHDL-MOG, MOG or PBS on indicated days. Mice were weighed and scored daily based on the following guideline: 0, no sign of disease; 1, loss of tone in the tail; 2, hind limb paresis; 3, hind limb paralysis; 4, tetraplegia; and 5, moribund.\nTo produce HDL nanodiscs carrying immunomodulatory drugs, 22A, and DMPC were dissolved in acetic acid and freeze-dried overnight as shown above. Drugs (FTY720, ITE, TSA, or SAHA) were dissolved in chloroform and added to lyophilized powder, followed by drying overnight in vacuum oven. Dried samples were rehydrated by 10 mM phosphate buffer. After three heat-cooling cycles, HDL-loaded with drugs were performed. The concentration of each drug was measured by HPLC-MS as shown for FTY720, ITE, TSA, or SAHA (FIGS. 14-17, respectively). Free drugs were used to generate standard curves. […] Samples were also analyzed by dynamic light scattering (DLS) for the particle sizes. […] We also analyzed HDL-FTY720 samples using gel permeation chromatography (GPC) (FIG. 19).\nWe synthesized HDL nanodiscs loaded with other CD4+ T cell epitopes for validation of our approach. We have synthesized phospholipids conjugated to either Ea chain 52-68 peptide (EA, ASFEAQGALANIAVDKA (SEQ ID NO: 831)), ovalbumin-II 323-339 peptide (OVA-II, ISQAVHAAHAEINEAGR (SEQ ID NO: 832)), and type-II collagen 250-270 peptide (CIA, […] (SEQ ID NO: 833)), each modified with CSS-peptide at N-terminus. Antigen-lipid conjugates were loaded into HDL nanodiscs as described above and analyzed by HPLC/MS and DLS. EA, OVA-II, and CIA peptides were conjugated to MPB-phospholipids with ˜95% conjugation efficiency (FIGS. 22-25). Antigen-lipid conjugates were efficiently loaded into HDL nanodiscs with ˜90%, ˜84%, and ˜78% loading efficiency for EA, OVA-II, and CIA peptides, respectively (FIGS. 22-25)."}, "[2]": {"experiment": "Lymph node draining / biodistribution of TMR-labelled antigen after s.c. administration", "assay_type": "in vivo, C57BL/6 mice", "conditions": "naive mice, after one day", "description": "Tetramethylrhodamine (TMR, excitation/emission ˜540/560 nm) modified MOG peptide (CSSGWYRSPFSRVVHL-TMR, MOG-TMR SEQ ID NO: 829) was prepared by reacting TMR-NHS and MOG peptide according to the manufacturer's instruction. MOG-TMR was purified using HPLC and reacted with DOPE-MAL in DMF to produce DOPE-Mal-MOG-TMR (MOG-TMR). Next, the DMF solution was diluted with water, freeze-dried, dissolved in DMSO, and added to previously made HDL to produce HDL-MOG-TMR. Conjugation of MOG-TMR to DOPE-MAL and incorporation of MOG-TMR in HDL were measured by HPLC/MS, as indicated above. For the lymph node draining studies, naive female C57BL/6 mice or EAE-induced mice were administered s.c. at tail base with HDL-MOG-TMR or free MOG-TMR containing antigen peptide (100 μg per mouse) in 100 μl volume. After 24, 96, and 196 hr, animals were euthanized, organs were harvested, and TMR signal was measured with an IVIS optical imaging system (Caliper Life Sciences). Inguinal lymph nodes and spinal cord were cut into small pieces and passed through a 70-μm cell strainer, washed two times, and stained with the indicated antibodies, followed by flow cytometry analysis."}, "[3]": {"tested_on": "microglia", "experiment": "Cellular uptake by microglia (confocal microscopy)", "assay_type": "cell-based, C57BL6/J mice", "conditions": "FITC-labelled antigen", "description": "Mixed glial cell cultures were harvested from the cerebral cortex of newborn (P0-2) C57BL6/J mice as described previously. Cortices and brain stem were separated, and the blood vessels and meninges were carefully isolated. Then, the tissues were digested by enzymatic dissociation (0.05% trypsin-EDTA and […] DNase I), washed two times with 1% BSA in PBS. Cells were resuspended in DMEM (10% FBS, 1% penicillin/streptomycin, 0.5 mM 2-mercaptoethanol). Mixed glial cells were cultured in poly-D-lysine-coated flasks and grown at 37° C. and 5% CO2. After 10 days, microglia cells were isolated from the underlying astrocytic layer by shaking of the flask. The cell culture contained more than 95% microglial (CD11 b+, CD45+) cells as analyzed by flow cytometry.\n(§1) Internalization of fluorescent HDL-MOG by BMDCs or microglia were visualized using confocal microscopy. BMDCs or microglia were seeded at 1×10^6 cells on 35 mm Petri dishes (MatTek) and incubated with the mixture of free CSS-MOG-K(FITC), or sHDL-CSS-MOG-K(FITC). Cells were then washed three times with PBS, fixed with 4% paraformaldehyde, washed, and permeabilized with 0.1% Triton-X solution. Actin filaments were stained with AlexaFluor 647-Phalloidin, MHC-II was stained with MHC-II-Texas red, and the nuclei were stained with DAPI. The samples were imaged using a 63× oil-immersion lens on a Nikon A-I spectral confocal microscope."}, "[4]": {"tested_on": "bone marrow-derived dendritic cells (BMDCs)", "experiment": "Cellular uptake by BMDCs (confocal microscopy)", "assay_type": "cell-based, C57BL/6 mice", "conditions": "FITC-labelled antigen", "description": "To obtain bone marrow-derived dendritic cells (BMDCs), bone marrow was flushed from femurs and tibia bone of 5 to 6 weeks old C57BL/6 mice. Bone marrow cells were plated at 1×10^6 cells per dish in RPMI 1640 supplemented with 10% FBS, 55 μM β-mercaptoethanol, 5 ng/ml of GM-CSF, and 100 U/ml penicillin (BMDC media). On day three and five, one half of the culture media was replaced with fresh media. After 8 days, BMDCs were harvested and plated at 1×10^6 cells per well in 12-well plates.\nas §1"}}}
{"molecule": "ASFEAQGALANIAVDKA [Ea chain 52-68 peptide, modified with CSS-peptide at N-terminus]", "values": [{"measurement": "loading efficiency in HDL", "setting": "[1]", "result": "~90", "unit": "%"}]}
{"molecule": "CSSGWYRSPFSRVVHL-TMR [MOG-TMR]", "values": [{"measurement": "TMR signal in inguinal dLNs", "setting": "[2]", "result": "minimal TMR signal"}]}
{"molecule": "GPKGQTGKPGIAGFKGEQGPK [CIA, type-II collagen 250-270 peptide, modified with CSS-peptide at N-terminus]", "values": [{"measurement": "loading efficiency in HDL", "setting": "[1]", "result": "~78", "unit": "%"}]}
{"molecule": "CSS-MOG-K(FITC) [MOG-FITC]", "values": [{"measurement": "internalization by microglia", "setting": "[3]", "result": "minimal signal"}, {"measurement": "internalization by BMDCs", "setting": "[4]", "result": "minimal signal"}]}
{"molecule": "O=C(CCCCCCC(=O)Nc1ccccc1)NO", "note": "[SAHA, Suberoylanilide hydroxamic acid]", "values": [{"measurement": "drug encapsulate efficiencies", "setting": "[1]; drug in HDL nanodiscs, HPLC-MS", "result": "~100", "unit": "%"}]}
